The text below walks through data of patent US8748411B2, “Antineoplastic compounds and pharmaceutical compositions thereof” (Centro de Ingenieria Genetica y Biotechnologia, priority 2005, dated 2014).

Molecules are shown by their SMILES. Where two headings read alike, the source gives them in different places. Where a SMILES comes first, the peptide text is derived from it.

The target in assay [1] is oncoprotein E7 from Human Papilloma Virus type 16 as GST fusion protein (E7-GST), phosphorylated by CK2 enzyme (Human papillomavirus type 16, UniProt P03129). The assay is classed as biochemical. The following applies: read-out: Inhibitory concentration 50 (IC50).
Assay [2] concerns CK2 optimized consensus substrate sequence RRREEETEEE
The experiment in a line: In vitro CK2 phosphorylation of the optimized consensus substrate peptide […], filter radioactivity. The following applies: read-out: Inhibitory concentration 50 (IC50). Format: biochemical. How it is done:
The assay consists in performing an in vitro phosphorylation reaction, using as the substrate the sequence […] (SEQ. ID NO. 1) widely accepted as an optimized consensus phosphorylation domain for the CK2 substrates.
Before the enzymatic reaction the substrate peptide was preincubated one hour at 37° C., with different concentrations of the chemical compounds. The reaction is carried out in a mixture consisting of 50 μl Tris:HCL 25 mM pH 7.5 buffer, 1 μCi of ^32P-γATP, 100 μM ATP, 40 μl E7-GST containing resin, 0.2 M NaCl, 10 mM MgCl and 1 unit of the CK2 enzyme (Promega), allowing it to proceed for 10 minutes at 37° C. After the reaction 5 μl of the reaction mixture were applied to a Whatmann PE-81 paper filter and washed four times with 10 mM H3PO4, finally the paper associated radioactivity was measured and the cpm value for each sample was directly correlated with the CK2 enzymatic activity.
The IC50 values were estimated using each dosage-effect curve.

For assay [3], the system named is H-125 cells. The experiment in a line: Cytotoxic effect on cultured human tumour cells (MTS, 72 h). The conditions noted are these: read-out: Inhibitory concentration 50 (IC50). The assay is classed as cell-based. Here is the method:
H-125 cells from a human Non Small Cells Lung Carcinoma were soiled in 96 well plates (Costar) to a 2×10^4 cell/ml density in Dulbecco (DMEM) media (Gibco) and supplemented with Foetal Calf Serum (Gibco). 24 hours later the chemical compounds described herein were added to the cultured media in a range between 0.5 and 100 nM, incubating the mixture for 72 h at 37° C. in 5% CO2, at the end 20 μl of a 1.90 mg/ml MTS solution was added. […] The results are evaluated as growth percentage to controls without any compound, and the IC50 values were estimated using each dosage-effect curve.

Assay [4] relates to H-125 cells tumour implant. Details: species or system BalbC nude mice. The following applies: mouse, in vivo.
The subject of assay [5] is Jurkat cells. The following applies: cited from earlier work.
[6] abbreviates: substrate peptide preincubated 1 h at 37° C., reaction 10 minutes at 37° C., 100 μM ATP.
Setting [7] is: NCI-H125, H-125 cells, 72 h, MTS, absorbance 492 nm.

Chain of oncoprotein E7 from Human Papilloma Virus type 16 as GST fusion protein (E7-GST), phosphorylated by CK2 enzyme (P03129 whole entry, looked up, the tested form may be a part): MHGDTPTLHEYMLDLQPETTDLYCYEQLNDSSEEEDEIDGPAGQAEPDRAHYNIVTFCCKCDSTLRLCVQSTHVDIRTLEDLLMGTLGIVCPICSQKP

In the case of `CC1=C/C(=N\NC(N)=O)CC(C)(C)C1` [C30401], the IC50 in assay [1] amounted to 26 ± 11 nM; in assay [2], 62 ± 11 nM; in assay [3] (NCI-H125, 72 h), 103 ± 21 nM.
For the molecule `CC(C)NC(=S)Nc1c(N)nc(O)nc1O` [C30402], the results for the IC50 in assay [1], in assay [2] (setting [6]) and in assay [3] (setting [7]) were 30 ± 5 nM, 74 ± 7 nM and 98 ± 7 nM, respectively.
Turning to `CCCCNC(=O)NCc1ccco1` [C30403], the IC50 in assay [1] worked out at 34 ± 9 nM; in assay [2], 58 ± 9 nM; in assay [3] (NCI-H125, 72 h) it was 128 ± 9 nM.
Take `O=C(O)CCNC(=O)NCCC(=O)O` [C30404]: the IC50 in assay [1] is 20 ± 8 nM; in assay [2], 61 ± 8 nM; in assay [3] (NCI-H125, 72 h) it was 115 ± 18 nM.
Consider `N#CCNC(=O)NCCCl` [C30405], for which the IC50 in assay [1] stood at 27 ± 10 nM; in assay [2], 57 ± 10 nM; in assay [3] (NCI-H125, 72 h), 104 ± 12 nM.
As to `C/C(Cc1c[nH]c2ccccc12)=N\NC(N)=S` [C30406], the IC50 amounted to 32 ± 7 nM in assay [1]; 60 ± 7 nM in assay [2]; 97 ± 17 nM in assay [3] (NCI-H125, 72 h).
Turning to `C/C=C/CC/C(=N\NC(N)=O)c1ccccc1` [C30408], the IC50 in assay [1] was 29 ± 2 nM; in assay [2], 79 ± 5 nM; in assay [3] (NCI-H125, 72 h) it was 119 ± 8 nM.
As to `O=C(NCO)NC1NC(=O)NC1=O` (stereo not drawn) [C30409], the IC50 in assay [1] amounted to 31 ± 6 nM; in assay [2], 55 ± 6 nM; in assay [3] (NCI-H125, 72 h) it was 104 ± 6 nM.
Taken in the same sequence, the figures for `Clc1cc(Cl)cc(Nc2nc(C(Cl)(Cl)Cl)nc(C(Cl)(Cl)Cl)n2)c1` [C30410] were 40 ± 9 nM, 54 ± 7 nM and 114 ± 7 nM.
`CC(C)(C)NC(=O)NCCCl` [C30411]: the IC50 in assay [1] is 27 ± 10 nM; in assay [2] it was 66 ± 12 nM; in assay [3] (NCI-H125, 72 h), 126 ± 15 nM.
Taken in the same sequence, the figures for `CC(C)(NC(=O)NCCCl)c1ccccc1` [C30412] were 30 ± 3 nM, 71 ± 5 nM and 91 ± 15 nM.
`CC(C)(CS(C)(=O)=O)NC(=O)NCCCl` [C30413]: the IC50 in assay [1] was found to be 24 ± 9 nM; in assay [2], 64 ± 11 nM; in assay [3] (NCI-H125, 72 h), 130 ± 11 nM.
On to `N=C(N)C(NC=O)C(=O)NCc1ccccc1` (stereo not drawn) [C30414], for which the IC50 in assay [1] amounted to 23 ± 9 nM; in assay [2], 68 ± 9 nM; in assay [3] (NCI-H125, 72 h), 118 ± 9 nM.
Taken in the same sequence, the figures for `C/C(COc1ccccc1)=N/NC(N)=S` [C30415] were 33 ± 8 nM, 72 ± 10 nM and 112 ± 10 nM.
Regarding `NCC(=O)NCC(=O)NCC(=O)NCC(=O)O` [C31416] (H-GGGG-OH), the IC50 in assay [1] was 39 ± 6 nM; in assay [2] (setting [6]) it was 69 ± 6 nM; in assay [3] (setting [7]) it was 109 ± 6 nM.
With `CN(CC(=O)O)C(=O)CNC(=O)OCc1ccccc1` [C31417] (HELM PEPTIDE1{[O=C(OCc1ccccc1)[*:2]].G.[Sar]}$$$$V2.0), the IC50 was determined as 28 ± 11 nM in assay [1]; 78 ± 11 nM in assay [2]; 118 ± 21 nM in assay [3] (NCI-H125, 72 h).
Turning to `CC(Br)C(=O)NCC(=O)NCC(=O)O` (stereo not drawn) [C31418], the IC50 is 32 ± 5 nM in assay [1]; 72 ± 5 nM in assay [2]; 123 ± 15 nM in assay [3] (NCI-H125, 72 h).
In the case of `NC(=S)NN=CCn1ccc(=O)n(CC=NNC(N)=S)c1=O` [C31419], the IC50 in assay [1] was 30 ± 4 nM; in assay [2] it was 60 ± 8 nM; in assay [3] (NCI-H125, 72 h), 132 ± 18 nM.
Consider `NCCC(=O)NCC(=O)NCC(=O)O` [C31420] (HELM PEPTIDE1{[bAla].G.G}$$$$V2.0), for which the IC50 in assay [1] is 25 ± 7 nM; in assay [2], 55 ± 11 nM; in assay [3] (NCI-H125, 72 h), 125 ± 10 nM.
Regarding `NNC(=O)CNc1ccc(F)c(C(F)(F)F)c1` [C31421], the IC50 in assay [1] was 30 ± 8 nM; in assay [2], 50 ± 8 nM; in assay [3] (NCI-H125, 72 h), 120 ± 18 nM.
Turning to `NNC(=O)CNc1cccc(I)c1` [C31422], the IC50 in assay [1] was determined as 24 ± 5 nM; in assay [2] it was 74 ± 5 nM; in assay [3] (NCI-H125, 72 h) it was 114 ± 5 nM.
Turning to `CC(C(=O)NCC(O)CO)n1ccnc1[N+](=O)[O-]` (stereo not drawn) [C31423], the IC50 in assay [1] worked out at 26 ± 8 nM; in assay [2] it was 76 ± 4 nM; in assay [3] (NCI-H125, 72 h) it was 106 ± 9 nM.
On to `CCCC(NC(=O)CNC(=O)CN)C(=O)O` (stereo not drawn) [C31424] (HELM PEPTIDE1{G.G.[CCCC(N[*:1])C(=O)O]}$$$$V2.0), for which the IC50 in assay [1] was 32 ± 13 nM; in assay [2], 62 ± 1 nM; in assay [3] (NCI-H125, 72 h) it was 162 ± 11 nM.
For the molecule `O=C(O)CNC(=S)C(=S)NCC(=O)O` [C32425], the IC50 in assay [1] is 35 ± 3 nM; in assay [2], 65 ± 13 nM; in assay [3] (NCI-H125, 72 h), 115 ± 12 nM. The antitumoral response entry in assay [4] is recorded as “significant antitumoral response”.
Consider `NCCNCCNCCNCCN` [C33426], for which the IC50 in assay [1] stood at 29 ± 8 nM; in assay [2] it was 79 ± 9 nM; in assay [3] (NCI-H125, 72 h), 109 ± 19 nM. In addition, the antitumoral response entry in assay [4] was “significant antitumoral response”.
Consider `OCCNCCCNc1ccnc2cc(Cl)ccc12` [C34428], for which the IC50 in assay [1] turned out to be 25 ± 7 nM; in assay [2], 65 ± 10 nM; in assay [3] (NCI-H125, 72 h), 165 ± 12 nM.
Taken in the same sequence, the figures for `O=S(=O)(O)Nc1cnc(O)nc1O` [C34429] were 21 ± 12 nM, 61 ± 4 nM and 131 ± 4 nM.
Taken in the same sequence, the figures for `O=C1NC(=O)C(CS(=O)(=O)Nc2cccc(C(F)(F)F)c2)N1` (stereo not drawn) [C34430] were 30 ± 4 nM, 70 ± 4 nM and 140 ± 14 nM.
`O=C(NNCCO)c1ccncc1` [C34431]: the IC50 in assay [1] came to 32 ± 6 nM; in assay [2] it was 55 ± 3 nM; in assay [3] (NCI-H125, 72 h), 155 ± 23 nM.
On to `O=C(O)c1cc(O)nc(SCc2ccc(Cl)cc2Cl)n1` [C34432], for which the IC50 was 29 ± 7 nM in assay [1]; 67 ± 7 nM in assay [2]; 127 ± 7 nM in assay [3] (NCI-H125, 72 h).
Take `NCCC(=O)NCc1ccccc1` [C34433]: the IC50 was determined as 26 ± 10 nM in assay [1]; 76 ± 8 nM in assay [2]; 116 ± 18 nM in assay [3] (NCI-H125, 72 h).
Consider `NNC(=O)CC(O)C(=O)NN` (stereo not drawn) [C34434], for which the IC50 in assay [1] was determined as 28 ± 5 nM; in assay [2] it was 78 ± 1 nM; in assay [3] (NCI-H125, 72 h), 108 ± 21 nM.
Take `NC(CC(=O)NC(=O)OCc1ccccc1)C(=O)O` (stereo not drawn) [C34435]: the IC50 in assay [1] was 34 ± 3 nM; in assay [2] it was 64 ± 6 nM; in assay [3] (NCI-H125, 72 h), 124 ± 16 nM.
In the case of `N#CC(Nc1ccccc1C(N)=O)c1ccccc1` (stereo not drawn) [C34436], the IC50 amounted to 30 ± 2 nM in assay [1]; 66 ± 2 nM in assay [2]; 116 ± 22 nM in assay [3] (NCI-H125, 72 h).
Taken in the same sequence, the figures for `Cn1c(CCNC(=N)CSS(=O)(=O)O)nc2ccccc21` [C34437] were 27 ± 4 nM, 71 ± 9 nM and 131 ± 9 nM.
For `CC(O)CNc1nc(N)nc(O)c1[N+](=O)[O-]` (stereo not drawn) [C34438], the IC50 in assay [1] stood at 31 ± 1 nM; in assay [2], 81 ± 7 nM; in assay [3] (NCI-H125, 72 h) it was 111 ± 17 nM.
In the case of `CSc1nc(N)nc2c1ncn2C1CC(CO)C(O)C1O` (stereo not drawn) [C34439], the IC50 in assay [1] turned out to be 33 ± 5 nM; in assay [2], 63 ± 12 nM; in assay [3] (NCI-H125, 72 h) it was 123 ± 25 nM.
For `CCOC(=O)c1cc[nH]c1CC(=O)NN` [C34440], the IC50 was determined as 26 ± 4 nM in assay [1]; 56 ± 4 nM in assay [2]; 136 ± 32 nM in assay [3] (NCI-H125, 72 h).
Regarding `Brc1c(Br)c(Br)c2[nH]nnc2c1Br` [TBB, 4,5,6,7-tetrabromotriazole], in assay [5], the “apoptosis and caspase dependent degradation induction” value was “potent apoptosis and caspase dependent degradation inducer”.
